# From patent US20150307938A1, “METHOD TO IDENTIFY A NOVEL CLASS OF IMMUNOLOGIC ADJUVANTS” (Lancell, L.L.C., priority 2011, published 2015)
# Tested on: skin
# Assay: Affymetrix microarray of skin, DBP-4 hr and analogs vs. untreated; gene selection by log-2 fold change, Wilcoxon, Kendall tau (Tables 8, 9)
# Assay type: in vivo, mouse
compound,measurement,setting,value
"CCCCOC(=O)c1ccccc1C(=O)OCCCC [DBP, dibutylphthalate]",Kendall: Dda1,"gene Dda1, NM_025600_at, gene expression vs. output",Yes
same,Wilcoxon: Diablo,"gene Diablo, NM_023232_at, DBP-4 hr vs. untreated",No
same,Kendall: Diablo,"gene Diablo, NM_023232_at, gene expression vs. output",Yes
same,Wilcoxon: Dmap1,"gene Dmap1, NM_023178_at, DBP-4 hr vs. untreated",No
same,Kendall: Dmap1,"gene Dmap1, NM_023178_at, gene expression vs. output",Yes
same,Wilcoxon: Dnajc4,"gene Dnajc4, NM_020566_at, DBP-4 hr vs. untreated",No
same,Kendall: Dnajc4,"gene Dnajc4, NM_020566_at, gene expression vs. output",Yes
same,Wilcoxon: Eid1,"gene Eid1, NM_025613_at, DBP-4 hr vs. untreated",No
same,Kendall: Eid1,"gene Eid1, NM_025613_at, gene expression vs. output",Yes
same,Wilcoxon: Eif6,"gene Eif6, NM_010579_at, DBP-4 hr vs. untreated",No
same,Kendall: Eif6,"gene Eif6, NM_010579_at, gene expression vs. output",Yes
same,Wilcoxon: Erlec1,"gene Erlec1, NM_025745_at, DBP-4 hr vs. untreated",No
same,Kendall: Erlec1,"gene Erlec1, NM_025745_at, gene expression vs. output",Yes
same,Wilcoxon: Fam134b,"gene Fam134b, NM_025459_at, DBP-4 hr vs. untreated",No
same,Kendall: Fam134b,"gene Fam134b, NM_025459_at, gene expression vs. output",Yes
same,Wilcoxon: Fbxo25,"gene Fbxo25, NM_025785_at, DBP-4 hr vs. untreated",No
same,Kendall: Fbxo25,"gene Fbxo25, NM_025785_at, gene expression vs. output",Yes
same,Wilcoxon: Fgf13,"gene Fgf13, NM_010200_at, DBP-4 hr vs. untreated",No
same,Kendall: Fgf13,"gene Fgf13, NM_010200_at, gene expression vs. output",Yes
same,Wilcoxon: Flt1,"gene Flt1, NM_010228_at, DBP-4 hr vs. untreated",No
same,Kendall: Flt1,"gene Flt1, NM_010228_at, gene expression vs. output",Yes
same,Wilcoxon: Fmo5,"gene Fmo5, NM_010232_at, DBP-4 hr vs. untreated",No
same,Kendall: Fmo5,"gene Fmo5, NM_010232_at, gene expression vs. output",Yes
same,Wilcoxon: Ftsj3,"gene Ftsj3, NM_025310_at, DBP-4 hr vs. untreated",No
same,Kendall: Ftsj3,"gene Ftsj3, NM_025310_at, gene expression vs. output",Yes
same,Wilcoxon: Gcnt2,"gene Gcnt2, NM_023887_at, DBP-4 hr vs. untreated",No
same,Kendall: Gcnt2,"gene Gcnt2, NM_023887_at, gene expression vs. output",Yes
same,Wilcoxon: Gmcl1,"gene Gmcl1, NM_011818_at, DBP-4 hr vs. untreated",No
same,Kendall: Gmcl1,"gene Gmcl1, NM_011818_at, gene expression vs. output",Yes
same,Wilcoxon: Gpn3,"gene Gpn3, NM_024216_at, DBP-4 hr vs. untreated",No
same,Kendall: Gpn3,"gene Gpn3, NM_024216_at, gene expression vs. output",Yes
same,Wilcoxon: Gstz1,"gene Gstz1, NM_010363_at, DBP-4 hr vs. untreated",No
same,Kendall: Gstz1,"gene Gstz1, NM_010363_at, gene expression vs. output",Yes
same,Wilcoxon: Gtf2h2,"gene Gtf2h2, NM_022011_at, DBP-4 hr vs. untreated",No
same,Kendall: Gtf2h2,"gene Gtf2h2, NM_022011_at, gene expression vs. output",Yes
same,Wilcoxon: Gtf3a,"gene Gtf3a, NM_025652_at, DBP-4 hr vs. untreated",No
same,Kendall: Gtf3a,"gene Gtf3a, NM_025652_at, gene expression vs. output",Yes
same,Wilcoxon: Hsdl2,"gene Hsdl2, NM_024255_at, DBP-4 hr vs. untreated",No
same,Kendall: Hsdl2,"gene Hsdl2, NM_024255_at, gene expression vs. output",Yes
same,Wilcoxon: Icos,"gene Icos, NM_017480_at, DBP-4 hr vs. untreated",No
same,Kendall: Icos,"gene Icos, NM_017480_at, gene expression vs. output",Yes
same,Wilcoxon: Ifngr1,"gene Ifngr1, NM_010511_at, DBP-4 hr vs. untreated",No
same,Kendall: Ifngr1,"gene Ifngr1, NM_010511_at, gene expression vs. output",Yes
same,Wilcoxon: Inpp5d,"gene Inpp5d, NM_010566_at, DBP-4 hr vs. untreated",No
same,Kendall: Inpp5d,"gene Inpp5d, NM_010566_at, gene expression vs. output",Yes
same,Wilcoxon: Itgax,"gene Itgax, NM_021334_at, DBP-4 hr vs. untreated",No
same,Kendall: Itgax,"gene Itgax, NM_021334_at, gene expression vs. output",Yes
same,Wilcoxon: Itk,"gene Itk, NM_010583_at, DBP-4 hr vs. untreated",No
same,Kendall: Itk,"gene Itk, NM_010583_at, gene expression vs. output",Yes
same,Wilcoxon: Krt17,"gene Krt17, NM_010663_at, DBP-4 hr vs. untreated",No
same,Kendall: Krt17,"gene Krt17, NM_010663_at, gene expression vs. output",Yes
same,Wilcoxon: Map3k14,"gene Map3k14, NM_016896_at, DBP-4 hr vs. untreated",No
same,Kendall: Map3k14,"gene Map3k14, NM_016896_at, gene expression vs. output",Yes
same,Wilcoxon: Mdp1,"gene Mdp1, NM_023397_at, DBP-4 hr vs. untreated",No
same,Kendall: Mdp1,"gene Mdp1, NM_023397_at, gene expression vs. output",Yes
same,Wilcoxon: Meis1,"gene Meis1, NM_010789_at, DBP-4 hr vs. untreated",No
same,Kendall: Meis1,"gene Meis1, NM_010789_at, gene expression vs. output",Yes
same,Wilcoxon: Mkrn3,"gene Mkrn3, NM_011746_at, DBP-4 hr vs. untreated",No
same,Kendall: Mkrn3,"gene Mkrn3, NM_011746_at, gene expression vs. output",Yes
same,Wilcoxon: Mtcp1,"gene Mtcp1, NM_010839_at, DBP-4 hr vs. untreated",No
same,Kendall: Mtcp1,"gene Mtcp1, NM_010839_at, gene expression vs. output",Yes
same,Wilcoxon: Mum1,"gene Mum1, NM_023431_at, DBP-4 hr vs. untreated",No
same,Kendall: Mum1,"gene Mum1, NM_023431_at, gene expression vs. output",Yes
same,Wilcoxon: Myd88,"gene Myd88, NM_010851_at, DBP-4 hr vs. untreated",No
same,Kendall: Myd88,"gene Myd88, NM_010851_at, gene expression vs. output",Yes
same,Wilcoxon: Nagk,"gene Nagk, NM_019542_at, DBP-4 hr vs. untreated",No
same,Kendall: Nagk,"gene Nagk, NM_019542_at, gene expression vs. output",Yes
same,Wilcoxon: Ndufaf3,"gene Ndufaf3, NM_023247_at, DBP-4 hr vs. untreated",No
same,Kendall: Ndufaf3,"gene Ndufaf3, NM_023247_at, gene expression vs. output",Yes
same,Wilcoxon: Nek3,"gene Nek3, NM_011848_at, DBP-4 hr vs. untreated",No
same,Kendall: Nek3,"gene Nek3, NM_011848_at, gene expression vs. output",Yes
same,Wilcoxon: Nfkb2,"gene Nfkb2, NM_019408_at, DBP-4 hr vs. untreated",No
same,Kendall: Nfkb2,"gene Nfkb2, NM_019408_at, gene expression vs. output",Yes
same,Wilcoxon: Nicn1,"gene Nicn1, NM_025449_at, DBP-4 hr vs. untreated",No
same,Kendall: Nicn1,"gene Nicn1, NM_025449_at, gene expression vs. output",Yes
same,Wilcoxon: Nme3,"gene Nme3, NM_019730_at, DBP-4 hr vs. untreated",No
same,Kendall: Nme3,"gene Nme3, NM_019730_at, gene expression vs. output",Yes
same,Wilcoxon: Ntpcr,"gene Ntpcr, NM_025636_at, DBP-4 hr vs. untreated",No
same,Kendall: Ntpcr,"gene Ntpcr, NM_025636_at, gene expression vs. output",Yes
same,Wilcoxon: Orc3,"gene Orc3, NM_015824_at, DBP-4 hr vs. untreated",No
same,Kendall: Orc3,"gene Orc3, NM_015824_at, gene expression vs. output",Yes
same,Wilcoxon: Padi1,"gene Padi1, NM_011059_at, DBP-4 hr vs. untreated",No
same,Kendall: Padi1,"gene Padi1, NM_011059_at, gene expression vs. output",Yes
same,Wilcoxon: Panx1,"gene Panx1, NM_019482_at, DBP-4 hr vs. untreated",No
same,Kendall: Panx1,"gene Panx1, NM_019482_at, gene expression vs. output",Yes
same,Wilcoxon: Pfdn2,"gene Pfdn2, NM_011070_at, DBP-4 hr vs. untreated",No
same,Kendall: Pfdn2,"gene Pfdn2, NM_011070_at, gene expression vs. output",Yes
same,Wilcoxon: Phtf1,"gene Phtf1, NM_013629_at, DBP-4 hr vs. untreated",No
same,Kendall: Phtf1,"gene Phtf1, NM_013629_at, gene expression vs. output",Yes
